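Assay format: 96-well plates, 48-hour exposure. At the TGI there is no net growth.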
Tests used:
Experiment in all cases: NCI tumour cell line growth inhibition, 48 h
EKVX NSCLC = tested on: EKVX NSCLC
HT29 colon = tested on: HT29 colon
U251 CNS = tested on: U251 CNS
OVCAR-5 ovarian = tested on: OVCAR-5 ovarian
RXF-631 renal = tested on: RXF-631 renal
HCT-15 colon = tested on: HCT-15 colon
MOLT-4 leukemia = tested on: MOLT-4 leukemia
SF-295 CNS = tested on: SF-295 CNS
HOP-18 NSCLC = tested on: HOP-18 NSCLC
HOP-92 NSCLC = tested on: HOP-92 NSCLC
OVCAR-4 ovarian = tested on: OVCAR-4 ovarian
M14 melanoma = tested on: M14 melanoma
UACC-62 melanoma = tested on: UACC-62 melanoma
MALME-3M melanoma = tested on: MALME-3M melanoma
COLO 205 colon = tested on: COLO 205 colon
A549 NSCLC = tested on: A549 NSCLC
KM20L2 colon = tested on: KM20L2 colon
HCC-2998 colon = tested on: HCC-2998 colon
ACHN renal = tested on: ACHN renal
SF-268 CNS = tested on: SF-268 CNS
NCI-H460 lung = tested on: NCI-H460 lung
UO-31 renal = tested on: UO-31 renal
OVCAR-3 ovarian = tested on: OVCAR-3 ovarian
SK-MEL-2 melanoma = tested on: SK-MEL-2 melanoma
RPMI-8226 leukemia = tested on: RPMI-8226 leukemia
A498 renal = tested on: A498 renal
SF-539 CNS = tested on: SF-539 CNS
M19-MEL melanoma = tested on: M19-MEL melanoma
CAKI-1 renal = tested on: CAKI-1 renal
SN12C renal = tested on: SN12C renal
SNB-75 CNS = tested on: SNB-75 CNS
KM12 colon = tested on: KM12 colon
OVCAR-8 ovarian = tested on: OVCAR-8 ovarian
DLD-1 colon = tested on: DLD-1 colon
HOP-62 NSCLC = tested on: HOP-62 NSCLC
K-562 leukemia = tested on: K-562 leukemia
CCRF-CEM leukemia = tested on: CCRF-CEM leukemia
NCI-H226 lung = tested on: NCI-H226 lung
IGROV1 ovarian = tested on: IGROV1 ovarian
SW-620 colon = tested on: SW-620 colon
LOX IMVI melanoma = tested on: LOX IMVI melanoma
DMS 273 small cell lung = tested on: DMS 273 small cell lung
SK-MEL-5 melanoma = tested on: SK-MEL-5 melanoma
SK-MEL-28 melanoma = tested on: SK-MEL-28 melanoma
SNB-19 CNS = tested on: SNB-19 CNS
TK-10 renal = tested on: TK-10 renal
SNB-78 CNS = tested on: SNB-78 CNS
UACC-257 melanoma = tested on: UACC-257 melanoma
NCI-H23 lung = tested on: NCI-H23 lung
RXF 393 renal = tested on: RXF 393 renal
LXFL 529 NSCLC = tested on: LXFL 529 NSCLC
DMS 114 small cell lung = tested on: DMS 114 small cell lung
HCT-116 colon = tested on: HCT-116 colon
NCI-H522 lung = tested on: NCI-H522 lung
786-0 renal = tested on: 786-0 renal
HL-60(TB) leukemia = tested on: HL-60(TB) leukemia
XF 498 CNS = tested on: XF 498 CNS
SK-OV-3 ovarian = tested on: SK-OV-3 ovarian
SR leukemia = tested on: SR leukemia

Measured: TGI

COc1ccc(/C=C2\CCC(C)(CN(C)C)C2=O)cc1OC (configuration not stated)
> 100 µM: EKVX NSCLC | HT29 colon | U251 CNS | OVCAR-5 ovarian | RXF-631 renal | HCT-15 colon | MOLT-4 leukemia | SF-295 CNS | HOP-18 NSCLC | HOP-92 NSCLC | OVCAR-4 ovarian | M14 melanoma | UACC-62 melanoma | MALME-3M melanoma | COLO 205 colon | A549 NSCLC | KM20L2 colon | HCC-2998 colon | ACHN renal | SF-268 CNS | NCI-H460 lung | UO-31 renal | OVCAR-3 ovarian | SK-MEL-2 melanoma | RPMI-8226 leukemia | A498 renal | SF-539 CNS | M19-MEL melanoma | CAKI-1 renal | SN12C renal | SNB-75 CNS | KM12 colon | OVCAR-8 ovarian | DLD-1 colon | HOP-62 NSCLC | K-562 leukemia | CCRF-CEM leukemia | NCI-H226 lung | IGROV1 ovarian | SW-620 colon | LOX IMVI melanoma | DMS 273 small cell lung | SK-MEL-5 melanoma | SK-MEL-28 melanoma | SNB-19 CNS | TK-10 renal | SNB-78 CNS | UACC-257 melanoma | NCI-H23 lung | RXF 393 renal | LXFL 529 NSCLC | DMS 114 small cell lung | HCT-116 colon | NCI-H522 lung | 786-0 renal

CC(=O)OCCOCNC(=S)N/N=C/c1cc(Br)cs1
> 100 µM: HL-60(TB) leukemia | EKVX NSCLC | HT29 colon | U251 CNS | OVCAR-5 ovarian | RXF-631 renal | HCT-15 colon | MOLT-4 leukemia | XF 498 CNS | SF-295 CNS | HOP-18 NSCLC | SK-OV-3 ovarian | OVCAR-4 ovarian | M14 melanoma | UACC-62 melanoma | MALME-3M melanoma | COLO 205 colon | A549 NSCLC | KM20L2 colon | HCC-2998 colon | ACHN renal | SF-268 CNS | NCI-H460 lung | UO-31 renal | OVCAR-3 ovarian | SK-MEL-2 melanoma | RPMI-8226 leukemia | A498 renal | SF-539 CNS | M19-MEL melanoma | SN12C renal | SNB-75 CNS | SR leukemia | KM12 colon | OVCAR-8 ovarian | DLD-1 colon | HOP-62 NSCLC | K-562 leukemia | CCRF-CEM leukemia | NCI-H226 lung | IGROV1 ovarian | SW-620 colon | LOX IMVI melanoma | DMS 273 small cell lung | SK-MEL-5 melanoma | SK-MEL-28 melanoma | SNB-19 CNS | TK-10 renal | SNB-78 CNS | UACC-257 melanoma | NCI-H23 lung | RXF 393 renal | LXFL 529 NSCLC | DMS 114 small cell lung | HCT-116 colon | NCI-H522 lung | 786-0 renal
